These results are taken from ChEMBL document CHEMBL3751755, “Developing steroidal aromatase inhibitors-an effective armament to win the battle against breast cancer” (Eur J Med Chem, 2015).

Series [1] concerns the target T1, Aromatase (Homo sapiens, UniProt P11511).
T1 sequence (P11511 whole entry): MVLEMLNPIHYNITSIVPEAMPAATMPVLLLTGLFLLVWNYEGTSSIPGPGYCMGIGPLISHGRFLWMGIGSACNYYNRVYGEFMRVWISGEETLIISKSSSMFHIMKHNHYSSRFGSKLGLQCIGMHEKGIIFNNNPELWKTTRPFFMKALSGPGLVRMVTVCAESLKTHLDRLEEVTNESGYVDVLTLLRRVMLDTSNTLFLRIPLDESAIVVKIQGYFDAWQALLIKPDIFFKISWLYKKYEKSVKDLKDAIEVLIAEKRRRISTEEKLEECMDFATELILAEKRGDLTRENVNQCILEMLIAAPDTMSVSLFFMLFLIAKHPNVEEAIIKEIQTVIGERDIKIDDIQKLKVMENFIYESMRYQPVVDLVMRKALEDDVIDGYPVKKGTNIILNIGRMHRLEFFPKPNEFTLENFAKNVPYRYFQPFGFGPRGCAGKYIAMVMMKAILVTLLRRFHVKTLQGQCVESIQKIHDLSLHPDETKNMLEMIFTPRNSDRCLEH
Put plainly: Irreversible inhibition of human aromatase extracted from placental microsomes. The conditions noted are these: read-out: Ki(app).

Series [2] deals with T1, Aromatase. In words: Inhibition of human aromatase extracted from placental microsomes using [1beta-3H]androstenedione as substrate after 20 mins by radiometric assay.
Series [3] is described as follows: Antitumor activity against NMU-induced mammary tumor in rat. The format is functional.
Series [4] has as its target T2, Aromatase (Rattus norvegicus, UniProt P22443).
T2 sequence (P22443 whole entry): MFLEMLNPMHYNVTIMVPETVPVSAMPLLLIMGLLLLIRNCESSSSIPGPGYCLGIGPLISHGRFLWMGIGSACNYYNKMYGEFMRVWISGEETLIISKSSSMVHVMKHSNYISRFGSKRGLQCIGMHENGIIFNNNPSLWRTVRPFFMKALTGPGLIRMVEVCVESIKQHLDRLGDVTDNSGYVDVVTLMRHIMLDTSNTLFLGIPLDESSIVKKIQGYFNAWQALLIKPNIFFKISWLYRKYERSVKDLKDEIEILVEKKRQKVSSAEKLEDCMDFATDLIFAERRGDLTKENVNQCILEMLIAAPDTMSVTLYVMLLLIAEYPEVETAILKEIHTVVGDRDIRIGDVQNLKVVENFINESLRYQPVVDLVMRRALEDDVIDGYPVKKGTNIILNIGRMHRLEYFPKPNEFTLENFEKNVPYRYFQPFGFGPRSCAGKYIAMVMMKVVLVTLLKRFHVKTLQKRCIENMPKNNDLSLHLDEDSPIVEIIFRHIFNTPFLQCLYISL
Put plainly: Inhibition of aromatase in denucleated ovarian fraction extracted from PMSG pretreated Wistar rat by using testosterone as substrate at 1 uM.

Series [5] deals with T1, Aromatase. Put plainly: Inhibition of human aromatase extracted from placental microsomes using [1beta,2beta-3H]testosterone as substrate measured at 7 to 21 mins by scintillation counting analysis.
Series [6] addresses T1, Aromatase. Put plainly: Inhibition of human aromatase extracted from placental microsomes using [1-3H]androstenedione as substrate.
For series [7], the target named is T1, Aromatase. Put plainly: Inhibition of human aromatase extracted from placental microsomes using [1beta-3H]androstenedione as substrate after 20 mins by scintillation counting analysis.
Series [8] addresses T1, Aromatase. In words: Inhibition of human aromatase extracted from placental microsomes.
For series [9], the target named is T1, Aromatase. Put plainly: Time dependent inhibition of human aromatase extracted from placental microsomes using [1beta,2beta-3H]-testosterone as substrate after 10 mins by scintillation counting analysis.
For series [10], the target named is T1, Aromatase. In words: Inhibition of aromatase (unknown origin). Set-up: inhibition (INH): concentration or dose not given beside the values. The conditions noted are these: human.
The target of series [11] is T2, Aromatase. Put plainly: Competitive inhibition of aromatase in ovarian fraction extracted from PMSG pretreated Wistar rat by double reciprocal plot analysis in presence of testosterone.
The target in series [12] is T1, Aromatase. Put plainly: Inhibition of human aromatase extracted from placental microsomes using [1,2-3H]androstenedione as substrate after 20 mins by scintillation counting analysis.
Series [13] concerns the target T1, Aromatase. In words: Irreversible inhibition of human aromatase extracted from placental microsomes by double reciprocal plot analysis in presence of [1beta,2beta-3H]androstenedione.
Series [14] concerns the target T2, Aromatase. Put plainly: Inhibition of aromatase in denucleated ovarian fraction extracted from PMSG pretreated Wistar rat using testosterone as substrate at 50 uM by radioimmuno assay.
Series [15] concerns the target T2, Aromatase. In words: Inhibition of aromatase in denucleated ovarian fraction extracted from PMSG pretreated Wistar rat by using testosterone as substrate after 15 mins by radio immuno assay.
Series [16] has as its target T2, Aromatase. Put plainly: Inhibition of rat aromatase extracted from ovarian fraction using testosterone as substrate.
Series [17] has as its target T1, Aromatase. Put plainly: Inhibition of aromatase (unknown origin) at 5 uM relative to control.
For series [18], the target named is T1, Aromatase. Put plainly: Competitive inhibition of human aromatase extracted from placental microsomes by Dixon plot analysis in presence of [1,2-3H]androstenedione.
Series [19] deals with T1, Aromatase. In words: Inhibition of human aromatase extracted from placental microsomes assessed as 3H2O formation from [1b,2b-3H] testosterone preincubated for 5 mins followed by protein addition measured at 7 to 21 mins by liquid scintillation counting analysis.
In series [20] the target is T1, Aromatase. In words: Inhibition of aromatase (unknown origin) at 50 uM.
Series [21] concerns the target T1, Aromatase. Put plainly: Inhibition of human aromatase extracted from placental microsomes using [1beta,2beta-3H]androstenedione as substrate.
Series [22] addresses T1, Aromatase. Put plainly: Competitive inhibition of human placental aromatase in presence of testosterone.
For series [23], the target named is T1, Aromatase. Put plainly: Inhibition of human aromatase extracted from placental microsomes using [1beta-3H]androstenedione as substrate after 15 mins by scintillation counting analysis.
Series [24] has as its target T1, Aromatase. Put plainly: Inhibition of human aromatase extracted from placental microsomes using [1-3H]androstenedione as substrate at […].
Series [25] has as its target T1, Aromatase. In words: Time dependent inactivation of human aromatase extracted from placental microsomes using [1,2-3H]androst-4-ene-3,17-dione.
Series [26] addresses T1, Aromatase. In words: Time dependent inhibition of human aromatase extracted from placental microsomes using [1beta,2beta-3H]androstenedione as substrate by scintillation counting analysis.
Series [27] deals with HeLa. Put plainly: Cytotoxicity against human HeLa cells after 48 hrs by MTT assay. Type of series: functional, cell-based.
A short description of series [28]: Cytotoxicity against human PC3 cells after 48 hrs by MTT assay. Type of series: functional, cell-based. The conditions noted are these: PC-3, 48 h.
The target in series [29] is T2, Aromatase. In words: Inhibition of aromatase in denucleated ovarian fraction extracted from PMSG pretreated Wistar rat using testosterone as substrate at 10 uM by radioimmuno assay.

For the molecule `C[C@]12CCC(=O)C(O)=C1CC[C@@H]1[C@@H]2CC[C@]2(C)C(=O)CC[C@@H]12` [FORMESTANE], the Ki in series [1] is 0.043 µM. This molecule also had a half-maximal inhibitory concentration (IC50) in [2] of 1.2 µM. The Activity in series [3] amounted to 67%. Moreover, in series [4], the inhibition at 1 µM was 99.2%.

Molecule `C[C@]12CC[C@H]3[C@@H](/C(=N/OCCCn4ccnc4)C=C4C[C@@H](O)CC[C@@]43C)[C@@H]1CC[C@@H]2O` gave a half-inhibitory concentration (IC50) in [5] of 3.1 µM.

With `C=C1C=C2CC[C@@H]3[C@H](CC[C@]4(C)C(=O)CC[C@@H]34)[C@@]2(CO)CC1`, the “inhibition (INH)” value in series [6] turned out to be 80%.

Take `C[C@]12C=CC(=O)C=C1CC[C@@H]1[C@@H]2CC[C@]2(C)C(=O)/C(=C/c3ccc4c(c3)OCO4)C[C@@H]12`: the IC50 in [7] amounted to 6.4 µM.

With `C[C@]12CC[C@H]3[C@@H](Cc4n[nH]c5c4[C@]3(C)CCC5=O)[C@@H]1CC[C@@H]2O`, the midpoint of inhibition in series [8], the IC50, lay at 0.236 µM.

The molecule `CS[C@]12C=CC(=O)C=C1CC[C@H]1[C@@H]3CC[C@H](O)[C@@]3(C)CC[C@@H]12` gave a Ki in series [9] of 0.61 µM.

For `CC(=O)[C@@]1(C)CC[C@H]2[C@@H](CCC3=CC(=O)CC[C@@]32C)C1CC#N` (stereo partly specified), the “inhibition (INH)” value in series [10] is reported as 46.5%. Also, the Ki in series [11] was 0.27 µM.

For `C[C@]12CCC(=O)C=C1[C@@H](OC(=O)CBr)C[C@@H]1[C@@H]2CC[C@]2(C)C(=O)CC[C@@H]12`, the half-maximal inhibitory concentration (IC50) in [12] was 2.8 µM.

For `C[C@]12CC[C@H]3[C@@H](CCC4=CC(=O)CC[C@@]43S)[C@@H]1CC[C@@H]2O`, in series [13], the Ki came to 0.106 µM.

As to `C[C@]12CC[C@H]3[C@@H](Cc4nn(Cc5ccccc5)c5c4[C@]3(C)CCC5=O)[C@@H]1CC[C@@H]2O`, the concentration for half-maximal inhibition (IC50) in [8] stood at 0.245 µM.

With `C[C@]12CC[C@@H]3c4ccc(OCc5ccccc5)cc4CC[C@H]3[C@@H]1CC(=O)OC2`, the inhibition at 50 µM in series [14] was 26.7%.

On to `C[C@@H]1OC(=O)C[C@H]2[C@@H]3C=C[C@H]4C[C@@H](O)CC[C@]4(C)[C@H]3CC[C@]12C`, for which the IC50 in series [15] came out at 0.25 µM.

Regarding `C[C@]12C=CC(=O)C=C1C=C[C@@H]1[C@@H]2CC[C@@]2(C)[C@H]1CC[C@@]2(O)Cc1ccccn1`, in series [16], the “inhibition (INH)” value was determined as 51.5%.

Turning to `CC(=O)O[C@H]1CC[C@@]2(C)C(=CC[C@H]3C(CC#N)[C@@](C)(CBr)CC[C@@H]32)C1` (stereo partly specified), in series [17], the inhibition at 5 µM was found to be 19.4%.

On to `C[C@]12CC[C@H]3[C@@H](CCC4=CCCC[C@@]43CO)[C@@H]1CCC2=O`, for which, in [18], the Ki was 0.0125 µM.

Consider `COc1cc(/C=C2\C[C@H]3[C@@H]4CCC5=CC(=O)CC[C@]5(C)[C@H]4CC[C@]3(C)C2=O)ccc1OCCCn1ccnc1`, for which, in series [19], the half-inhibitory concentration (IC50) was 4.4 µM.

Take `C[C@]12CCC(=O)C(O)=C1C=C[C@@H]1[C@@H]2CC[C@]2(C)/C(=C/c3ccccn3)CC[C@@H]12`: the inhibition at 50 µM in series [20] was determined as 92%.

`CC(=O)O[C@H]1CC[C@@]2(C)C(=C/C(=N\OCCCn3ccnc3)[C@H]3[C@@H]4CC[C@H](OC(C)=O)[C@@]4(C)CC[C@@H]32)C1` registered an IC50 in series [5] of 12 µM.

Consider `C[C@@H]1OC(=O)C[C@H]2[C@@H]3CCC4=CC(=O)CC[C@]4(C)[C@H]3CC[C@]12C`, for which the half-inhibitory concentration (IC50) in [15] turned out to be 0.28 µM.

Regarding `C[C@]12CC=C3[C@@H](CCC4=CC(=O)CC[C@@]43CCSCF)[C@@H]1CCC2=O`, the midpoint of inhibition in series [21], the IC50, lay at 0.05 µM.

As for `C[C@]12CCC(=O)C3=C1C(=Nc1ccccc1S3)C[C@@H]1[C@@H]2CC[C@]2(C)C(=O)CC[C@@H]12`, in series [22], the concentration for half-maximal inhibition (IC50) came to 42.3 µM.

As to `C[C@]12CC[C@H](O)C(N=[N+]=[N-])=C1CC[C@@H]1[C@@H]2CC[C@]2(C)/C(=N/O)CC[C@@H]12`, the INH in series [23] came out at 32.8%.

With `C[C@]12CCC(=O)C=C1C(=O)C[C@@H]1[C@@H]2CC[C@]2(C)/C(=C/c3ccccn3)CC[C@@H]12`, in series [20], the inhibition at 50 µM amounted to 108%.

As to `C[C@]12CCC(=O)C=C1CC[C@@H]1[C@@H]2CC[C@@]2(C)[C@H]1CC[C@@]2(O)Cc1ccccn1`, the “inhibition (INH)” value in series [16] was found to be 51.5%.

With `C=C1C=C2CC[C@@H]3[C@H](CC[C@]4(C)C(=O)CC[C@@H]34)[C@@]2(C=O)CC1`, the “inhibition (INH)” value in series [6] was found to be 50%.

On to `C[C@]12CCC(=O)C=C1C[C@@H](Sc1ccc(Cl)cc1)[C@@H]1[C@@H]2CC[C@]2(C)C(=O)CC[C@@H]12`, for which the inhibition at […] in [24] was found to be 45%.

The molecule `C[C@]12CC[C@H]3[C@@H](CCC4=CC(=O)CC[C@@]43C(F)F)[C@@H]1CCC2=O` gave a Ki in series [25] of 1 µM.

`C[C@]12CC[C@H]3[C@@H](CCC4=CC(=O)CC[C@@]43CS)[C@@H]1CCC2=O` gave a Ki in series [26] of 0.034 µM.

Regarding `C=C1C[C@@H]2[C@H]([C@H](O)C[C@]3(C)C(=O)CC[C@@H]23)[C@@]2(C)C=CC(=O)C=C12`, the IC50 was found to be 16.8 µM in series [27] and 24.9 µM in [28].

Take `CSCC[C@]12CCC(=O)C=C1CC[C@@H]1C2=CC[C@]2(C)C(=O)CC[C@@H]12`: half-maximal inhibition in series [21] (IC50) required 0.012 µM.

Consider `C[C@]12CC[C@@H]3c4ccc(O)cc4CC[C@H]3[C@@H]1CC(=O)OC2`, for which the inhibition at 10 µM in series [29] worked out at 1.5%.
